Assay [1] has as its system COG-N-496x neuroblastoma PDX. In words: High-risk neuroblastoma PDX COG-N-496x. Format: in vivo, NSG mice. The settings on record: COG-N-496x PDX; vincristine 0.5 mg/kg i.p. once weekly. The protocol:
(§1) All animal studies were performed in accordance with the guidelines approved by University of New South Wales Animal Care and Ethics Committee (ACEC 17/53B) and in accordance with the requirements of the Australian Code for the Care and Use of Animals for Scientific Purposes. PDX models COG-N-440x and COG-N-496x were obtained from the Childhood Cancer Repository, Texas Tech University Health Sciences Center in Lubbock, TX, USA. 6–8 week old female NSG mice were engrafted by subcutaneous injection with 1 × 10^6 freshly thawed PDX tumor cells into one flank in a mixture of 100 μl RPMI-1640 and 100 μl Matrigel. Mice were monitored for tumor development three times weekly and tumor size measured using digital Vernier calipers. Treatments commenced when tumors reached 50 mm^3, following randomization into treatment arms. […] Mice were treated with either vincristine (0.5 mg/kg, once weekly i.p. in sterile saline for up to 5 weeks), WEHI-7326 (20 mg/kg; twice weekly i.v. in sterile saline for up to 5 weeks) or vehicle (as for WEHI-7326). For the Th-MYCN transgenic mouse model, spontaneous tumor growth in mice homozygous for the MYCN transgene was assessed by abdominal palpation at least twice a week. Treatments commenced once a small palpable tumor (~5 mm) was detected, following randomization to treatment arms. Mice were euthanized upon detection of an abdominal tumor of ~1 cm in diameter. […]

Assay [2] relates to COG-N-440x neuroblastoma PDX. In words: High-risk neuroblastoma PDX COG-N-440x. It counts as in vivo, NSG mice. As to conditions: COG-N-440x PDX; vincristine 0.5 mg/kg i.p. once weekly. The protocol: as §1

`CC[C@]1(O)C[C@H]2CN(CCc3c([nH]c4ccccc34)[C@@](C(=O)OC)(c3cc4c(cc3OC)N(C=O)[C@H]3[C@@](O)(C(=O)OC)[C@H](OC(C)=O)[C@]5(CC)C=CCN6CC[C@]43[C@@H]65)C2)C1` [vincristine, reference compound]: the Efficacy result in assay [1] and in assay [2] was “entirely ineffective” each time.

These data come from article PMC7955127, “Preclinical small molecule WEHI-7326 overcomes drug resistance and elicits response in patient-derived xenograft models of human treatment-refractory tumors” (Cell Death & Disease, 2021).
